This is an account of results in patent publication US5227384A, “5-substituted [4,5-c] imidazopyridines and pharmaceutical use thereof” (G. D. Searle & Co., priority 1991, dated 1993).

pIC50: −log10 of the molar value.

Usually pIC50 stands for the IC50 on a negative log10 scale, so that one unit is a factor of ten.

For test [1], the target named is PAF receptor (Human Platelet Membrane Receptors) (Homo sapiens, UniProt P25105).
Procedure: Inhibition of ^3 H-PAF Binding to Human Platelet Membrane Receptors
Receptor Preparation: Ten units of in-dated human packed platelets, each containing 45-65 ml platelet rich-plasma, were purchased from a commercial blood bank. Disposable plasticware was used throughout for receptor preparation. The units were pooled and a 1 ml aliquot was removed for determination of platelet concentration, using a Coulter Counter. The remaining platelet rich plasma was dispensed into 50 ml conical tubes and centrifuged at room temperature for 15 minutes at 3000 RPM (2300×g).Plasma was decanted and the platelets were resuspended in 35 ml of buffer 10 mM Trizma 7.0, 2 mM EDTA (dipotassium salt), and 150 mM KCl) and transferred to fresh tubes, which were centrifuged again as above. The platelets were washed 3 times, avoiding contaminating erythrocytes at the bottom of the pellets. Pellets were consolidated at each step, and by the last wash with EDTA/KCl buffer, most of the erythrocytes were in 1 tube. The pellets were resuspended in buffer containing 10 mM Trizma 7.0 with 10 mM CaCl2. Following centrifugation, the buffer was decanted and the pellets were resuspended in the CaCl2 buffer, avoiding erythrocyte contamination by recovering less than 100% of the platelet pellets. The resuspended platelets were dispensed in 8-10 ml aliquots into Corex tubes and disrupted by three cycles of freezing (dry ice/ethanol) and thawing (24° C.). The tubes were centrifuged at 40,000×g for 20 minutes at 4° C. Supernatants were decanted and each pellet was resuspended in 5-7 ml 10 mM Trizma 7.0. All resuspended pellets were pooled and aliquots of about 1200 ml were dispensed into 1.5 ml microfuge tubes and frozen at -70° C. Protein content was determined by a fluorescamine protein assay.
Assay Methods: Receptor Characterization--Each receptor preparation was evaluated to determine the number of receptor populations, the number of PAF receptor equivalents/mg protein and the dissociation constant (KD) for PAF binding. This required 2-3 experiments in which the protein concentration was held constant and the ^3 H-PAF ligand concentration was varied from approximately 0.10-2.5 nM and the data was analyzed by Scatchard methodology. Total incubation volume was 250 ml for these procedures and incubations were conducted at 24° C. for 30 minutes. For further experimentation, total incubation volumes are 500 ml. Protein and ligand concentrations were adjusted to give 0.075 nM receptor equivalents in the presence of 0.75 nM ^3 H-PAF. Each receptor preparation was then used to determine the dose--response displacement relationship of unlabeled PAF and the PAF antagonist, triazolam.
Assay Methods: Routine Assay of Compounds--The compounds were weighed precisely and solubilized in quantities of DMSO such that a 5 ml aliquot in the incubate would deliver the desired compound concentration. Compounds tested for the first time in this assay were evaluated at a concentration of 50 mM in the incubation medium. […] Triazolam was always included in each screening assay as a compound inhibition control. […] Nonspecific binding control solution was made by drying to completion about 26.2 ml unlabeled PAF under a stream of argon. PAF was resolubilized in 1000 ml DMSO. When delivered in a 5 ml aliquot, the final concentration of 1 mM PAF in the incubate exceeded by 1000-fold the concentration of ^3 H-PAF.
All buffers containing proteins were made at room temperature on the day of assay. Assay buffer was prepared by adding 125 mg human albumin to 25 ml of stock buffer (10 mM Trizma 7.4 with 20 mM CaCl2). Rinse buffer was made by adding 20 grams bovine serum albumin to i000 ml stock buffer. About 80 ml of rinse buffer was decanted into a small pyrex dish and used to soak 65 Whatman GF/C 2.5 cm glass filters. The remaining rinse buffer was poured into a repipet and placed into an ice bath along with the filters.
Test [2] has as its system rabbit platelets. Description: PAF-induced platelet secretion ([^3 H]serotonin). To be noted: Oryctolagus cuniculus, washed [^3 H]serotonin-labeled rabbit platelets, 60 sec after PAF, IC50 by inspection of dose-response curves. The format is cell-based. As to the method: (§1) PAF-induced platelet aggregation and secretion: Washed, [^3 H]serotonin-labeled rabbit platelets were prepared as previously described in COX, C. P., J. LINDEN and S. I. SAID: VIP elevates platelet cyclic AMP (cAMP) levels and inhibits in vitro platelet activation induced by platelet-activating factor (PAF). Peptides 5:25-28, 1984, and maintained in an atmosphere of 5% CO2 at 37° C. until used in the bioassay. […] Aggregation was continuously monitored on a strip-chart recorder and recorded as the height of the tracing at 60 sec after the addition of PAF. Secretion of [^3 H]serotonin was measured in a sample of the platelet suspension removed at 60 sec after the addition of PAF. The percent inhibition of aggregation and secretion was calculated by comparing antagonist-treated platelets with the appropriate vehicle-treated control platelets. Each combination of antagonist and PAF was repeated 12-15 times, using several different platelet preparations. IC50 values were determined by inspection of the dose-response curves.

Test [3] deals with rabbit platelets. Kind of test: PAF-induced platelet aggregation. It is filed as cell-based. The settings on record: Oryctolagus cuniculus, washed rabbit platelets, 60 sec after PAF, IC50 by inspection of dose-response curves. As to the method:
as §1

Sequence of PAF receptor (Human Platelet Membrane Receptors) (P25105 whole entry): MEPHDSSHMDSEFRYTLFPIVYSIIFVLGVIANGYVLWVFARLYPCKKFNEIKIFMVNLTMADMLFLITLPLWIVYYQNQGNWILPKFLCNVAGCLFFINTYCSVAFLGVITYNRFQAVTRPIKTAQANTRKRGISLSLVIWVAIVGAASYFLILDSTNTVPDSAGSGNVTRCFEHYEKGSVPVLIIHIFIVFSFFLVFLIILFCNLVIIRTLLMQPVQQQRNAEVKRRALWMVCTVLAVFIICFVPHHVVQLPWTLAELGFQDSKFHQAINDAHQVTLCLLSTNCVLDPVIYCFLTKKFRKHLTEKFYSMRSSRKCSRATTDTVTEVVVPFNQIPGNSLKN

As to `O=C(c1ccc(Cn2ccc3ncnc-3c2)cc1)N(c1ccccc1)C1CCCC1` [5-[4-(N-phenyl-N-cyclopentylcarboxamido)benzyl]imidazo[4,5-c]pyridine], the pIC50 in test [1] is 5.63; in the test with rabbit platelets [2] (1 min), 6.00 to 7.00; in the test on rabbit platelets [3] it was 6.00.

Regarding `COc1cc(C(=O)N(C(C)C)C2CCCCC2)ccc1Cn1ccc2ncnc-2c1` [5-[4{-(N-isopropyl,N-cyclohexyl)carboxamido}-2-methoxybenzyl]imidazo[4,5-c]pyridine], the pIC50 in test [1] is 7.18; in the test with rabbit platelets [2], 8.00; in the test on rabbit platelets [3] (1 min), 7.00 to 8.00.

Regarding `CC(C)N(C(=O)c1ccc(Cn2ccc3ncnc-3c2)cc1)C1CCCCC1` [5-[4{-(N-isopropylyl,N-cyclohexyl)carboxamido}benzyl]imidazo[4.5-c]pyridine], the pIC50 in test [1] was 6.77; in the test with rabbit platelets [2], 8.00; with rabbit platelets [3] (1 min) it was 7.00 to 8.00.

With `O=C(c1ccc(Cn2ccc3ncnc-3c2)cc1)N(C1CCCCC1)C1CCCCC1` [5-[(4-(N,N-dicyclohexylcarboxamido)benzyl]imidazo[4,5-c]pyridine], the pIC50 is 5.97 in test [1], 8.00 in the test on rabbit platelets [2] and 6.00 to 7.00 in the test with rabbit platelets [3] (1 min).
